These results are taken from US8975265B2, “Substituted imidazo[1,2-a]pyrimidines and —pyridines” (Bayer Intellectual Property GmbH, priority 2010, dated 2015).

Each structure is given as a SMILES string.

For test [1], the target named is His-tagged human recombinant kinase full-length Akt1 (Homo sapiens (Human), UniProt P31749). The experiment in a line: Akt1 kinase assay (TR-FRET). Type of test: biochemical. The note with it: 10 μM ATP; read-out: Akt1, median IC50. The protocol:
Biological Assay 1.0: Akt1 Kinase Assay
Akt1 inhibitory activity of compounds of the present invention was quantified employing the Akt1 TR-FRET assay as described in the following paragraphs.
As substrate for the kinase reaction the biotinylated peptide biotin-Ahx-[…] (C-terminus in amide form) was used which can be purchased e.g. from the company Biosynthan GmbH (Berlin-Buch, Germany).
For the assay 50 nl of a 100 fold concentrated solution of the test compound in DMSO was pipetted into a black low volume 384 well microtiter plate (Greiner Bio-One, Frickenhausen, Germany), 2 μl of a solution of Akt1 in assay buffer [50 mM TRIS/HCl pH 7.5, 5 mM MgCl2, 1 mM dithiothreitol, 0.02% (v/v) Triton X-100 (Sigma)] were added and the mixture was incubated for 15 min at 22° C. to allow prebinding of the test compounds to the enzyme before the start of the kinase reaction. […] The concentration of Akt1 in the assay was adjusted depending of the activity of the enzyme lot and was chosen appropriate to have the assay in the linear range, typical enzyme concentrations were in the range of about 0.05 ng/μl (final conc. in the 5 μl assay volume).
The resulting mixture was incubated 1 h at 22° C. to allow the binding of the biotinylated phosphorylated peptide to the streptavidine-XL665 and the antibodies. Subsequently the amount of phosphorylated substrate was evaluated by measurement of the resonance energy transfer from the anti-mouse-IgG-Eu-Chelate to the streptavidine-XL665.
On the technique in general: In TR-FRET formats the signal depends on donor and acceptor labels being close together.

Test [2] relates to KPL-4 breast cancer cell line. The experiment in a line: Tumor cell proliferation assay (CellTiter-Glo, 72 h), KPL-4. Conditions: KPL4, 72h drug exposure. It counts as cell-based. How it is done:
Biological Assay 4.0: Tumor Cell Proliferation Assays
Compounds were tested in a cell-based assay that measures the capacity of the compounds to inhibit tumour cell proliferation following a 72h drug exposure. Cell viability is determined using CellTiter-Glow® (CTG, Promega, cat# G7571/2/3). The CellTiter-Glo® Luminescent Cell Viability Assay is a homogeneous method to determine the number of viable cells in culture. Detection is based on using the luciferase reaction to measure the amount of ATP from viable cells. The amount of ATP in cells correlates with cell viability. Within minutes after a loss of membrane integrity, cells lose the ability to synthesize ATP, and endogenous ATPases destroy any remaining ATP; thus the levels of ATP fall precipitously.
For each cell line assayed, cells were plated onto a separate plate for determination of […] at t=0 hour and t=72 hour time points. Following overnight incubation at 37° C., chemiluminescence values for the t=0 samples were determined after adding 10 μl medium and 100 μl CTG solution according to manufacture protocol. Plates for the t=72 hour time points were treated with compounds diluted into growth medium at ten times final concentration added in 10 μL to the cell culture plate. Cells were then incubated for 72 hours at 37° C. Chemiluminescence values for the t=72 hour samples were determined. […] Experiments were controlled using a reference compound as standard.

In test [3] the test system is p-AKT1/2/3-S473 in KPL4 breast tumour cell line. The experiment in a line: Cellular p-AKT1/2/3-S473 assay. Type of test: cell-based. The note with it: KPL4 breast tumour cell line, 2 hours treatment; read-out: pAKT-S743 median IC50. The protocol:
The molecular mechanism of action was investigated in a set of experiments to assess the inhibition of the PI3K-AKT-mTOR pathway in responsive cell lines such as KPL4 breast tumour cell line (PIK3CAH1047R, HER20/E and hormone independent). The phospho-substrates of PI3K-AKT-mTOR axis were used as the read-outs to reflect pathway inhibition. Cells were seeded at 60-80% confluency per well in 96-well cell culture plates. After overnight incubation at 37° C. 5% CO2, cells were treated with compounds and vehicle at 37° C. for 2 hours. […] All measurements where at least done in duplicates and confirmed by independent repetition.
Alternatively pAKT-S473 was measured using the “Akt Duplex” of the MULTI-SPOT® Assay System (Fa. Meso Scale Discovery, Cat# N41100B-1) following manufacturers instructions. Each assay used 20 μg of protein extract and measured total AKT and p-AKT content simultaneously in one well. All measurements where at least done in duplicates and confirmed by independent repetition. Values for P-AKT are expressed as percentage of P-AKT level compared to total-AKT content of the extracts.

Sequence of His-tagged human recombinant kinase full-length Akt1 (P31749 whole entry): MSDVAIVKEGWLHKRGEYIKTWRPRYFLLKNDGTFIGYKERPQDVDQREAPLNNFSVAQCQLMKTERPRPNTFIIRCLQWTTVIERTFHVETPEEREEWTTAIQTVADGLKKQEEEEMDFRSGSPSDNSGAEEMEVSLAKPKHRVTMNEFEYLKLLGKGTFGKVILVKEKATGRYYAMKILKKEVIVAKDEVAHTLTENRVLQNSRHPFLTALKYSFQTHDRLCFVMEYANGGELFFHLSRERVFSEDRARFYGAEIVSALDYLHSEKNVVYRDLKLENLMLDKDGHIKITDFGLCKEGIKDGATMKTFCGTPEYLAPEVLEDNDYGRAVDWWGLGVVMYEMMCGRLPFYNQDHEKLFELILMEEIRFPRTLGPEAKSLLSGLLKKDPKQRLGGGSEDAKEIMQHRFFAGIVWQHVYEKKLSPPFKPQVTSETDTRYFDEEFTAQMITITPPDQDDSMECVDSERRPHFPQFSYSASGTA

Consider `NC1(c2ccc(-c3nc4ncccn4c3-c3ccccc3)cc2)CCC1` [Example 1-0, 1-[4-(3-phenyl-imidazo[1,2-a]pyrimidin-2-yl)-phenyl]-cyclobutylamine], for which the IC50 (in general, the concentration needed to halve the response being measured) is 348 nM in test [1] and 1500 nM in test [2].
For the compound `Cc1ccn2c(-c3ccccc3)c(-c3ccc(C4(N)CCC4)cc3)nc2n1` [Example 1-1], the midpoint of inhibition in test [2], the IC50, lay at 2000 nM.
The same measure, in the same setting: to `NC1(c2ccc(-c3nc4nc(C5CC5)ccn4c3-c3ccccc3)cc2)CCC1` [Example 1-2] belongs 1800 nM; to `Cc1cnc2nc(-c3ccc(C4(N)CCC4)cc3)c(-c3ccccc3)n2c1` [Example 1-6], 1000 nM.
Consider `COc1cnc2nc(-c3ccc(C4(N)CCC4)cc3)c(-c3ccccc3)n2c1` [Example 1-7], for which the values for the IC50 in test [3] and in test [2] were 38 nM and 1000 nM, respectively.
In test [2], `CCOc1cnc2nc(-c3ccc(C4(N)CCC4)cc3)c(-c3ccccc3)n2c1` [Example 1-8] had an IC50 of 2300 nM.
As to `NC1(c2ccc(-c3nc4cc(-n5cccn5)ccn4c3-c3ccccc3)cc2)CCC1` [Example 1-11], the IC50 in test [1] came out at 102 nM; in test [3], 37 nM; in test [2], 1500 nM.
The matching figures for `CNC(=O)Nc1ccn2c(-c3ccccc3)c(-c3ccc(C4(N)CCC4)cc3)nc2c1` [Example 1-14]: 588 nM, 1170 nM and 9800 nM.
`NC1(c2ccc(-c3nc4nc(O)ccn4c3-c3ccccc3)cc2)CCC1` [Example 2-1]: the IC50 in test [1] amounted to 544 nM; in test [2], 5400 nM.
`CCCOc1ccn2c(-c3ccccc3)c(-c3ccc(C4(N)CCC4)cc3)nc2n1` [Example 2-2]: the IC50 stood at 250 nM in test [3] and 1700 nM in test [2].
The corresponding values for `N#Cc1cccn2c(-c3ccccc3)c(-c3ccc(C4(N)CCC4)cc3)nc12` [Example 2-3] are 32 nM and 2400 nM.
For the compound `Cc1ccn2c(-c3ccccc3)c(-c3ccc(C4(N)CCC4)cc3)nc2c1` [Example 2-4], the figures for the IC50 in test [1], in test [3] and in test [2] were 829 nM, 292 nM and 2000 nM, respectively.
In the case of `Cc1cccn2c(-c3ccccc3)c(-c3ccc(C4(N)CCC4)cc3)nc12` [Example 2-5], the IC50 in test [1] was 100 nM; in test [3], 209 nM; in test [2], 4300 nM.
The matching figures for `N#Cc1ccn2c(-c3ccccc3)c(-c3ccc(C4(N)CCC4)cc3)nc2c1` [Example 2-6]: 145 nM, 333 nM and 1600 nM.
The matching figures for `COc1ccn2c(-c3ccccc3)c(-c3ccc(C4(N)CCC4)cc3)nc2c1` [Example 2-8]: 96 nM, 237 nM and 1800 nM.
`CNC(=O)c1ccc2nc(-c3ccc(C4(N)CCC4)cc3)c(-c3ccccc3)n2c1` [Example 2-9]: the IC50 in test [3] was found to be 62 nM; in test [2], 900 nM.
In the case of `COCc1ccc2nc(-c3ccc(C4(N)CCC4)cc3)c(-c3ccccc3)n2c1` [Example 2-10], the IC50 in test [3] stood at 428 nM; in test [2], 1900 nM.
In the case of `COc1cccn2c(-c3ccccc3)c(-c3ccc(C4(N)CCC4)cc3)nc12` [Example 2-12], the IC50 in test [3] turned out to be 159 nM; in test [2], 1300 nM.
The matching figures for `CC(O)c1ccc2nc(-c3ccc(C4(N)CCC4)cc3)c(-c3ccccc3)n2c1` (centres unmarked) [Example 2-13]: 758 nM and 2200 nM.
Consider `NC1(c2ccc(-c3nc4cc(CO)ccn4c3-c3ccccc3)cc2)CCC1` [Example 2-14], for which the figures for the IC50 in test [3] and in test [2] were 510 nM and 3000 nM, respectively.
The matching figures for `NC1(c2ccc(-c3nc4c(CO)cccn4c3-c3ccccc3)cc2)CCC1` [Example 2-15]: 163 nM and 3200 nM.
The matching figures for `NC1(c2ccc(-c3nc4ccc(Br)cn4c3-c3ccccc3)cc2)CCC1` [Example 2-16]: 477 nM and 1900 nM.
In the case of `COc1ccc2nc(-c3ccc(C4(N)CCC4)cc3)c(-c3ccccc3)n2c1` [Example 2-17], the IC50 in test [1] is 36 nM; in test [3], 35 nM; in test [2], 1500 nM.
On to `CCOc1cccn2c(-c3ccccc3)c(-c3ccc(C4(N)CCC4)cc3)nc12` [Example 2-19], for which the figures for the IC50 in test [3] and in test [2] were 93 nM and 1600 nM, respectively.
Take `NC1(c2ccc(-c3nc4cc(-c5cn[nH]c5)ccn4c3-c3ccccc3)cc2)CCC1` [Example 2-22]: the IC50 worked out at 188 nM in test [1], 142 nM in test [3] and 1500 nM in test [2].
In the case of `COCCNCc1ccc2nc(-c3ccc(C4(N)CCC4)cc3)c(-c3ccccc3)n2c1` [Example 2-24], the IC50 in test [3] turned out to be 3320 nM; in test [2] it was 4500 nM.
In the case of `CCOc1ccn2c(-c3ccccc3)c(-c3ccc(C4(N)CCC4)cc3)nc2n1` [Example 2-29], the values for the IC50 in test [1] and in test [2] were 190 nM and 1800 nM, respectively.
In the case of `CC(C)Oc1ccn2c(-c3ccccc3)c(-c3ccc(C4(N)CCC4)cc3)nc2n1` [Example 2-30], the IC50 in test [3] came out at 464 nM; in test [2], 2300 nM.
As for `NC1(c2ccc(-c3nc4nc(OC5CCCCC5)ccn4c3-c3ccccc3)cc2)CCC1` [Example 2-31], the IC50 in test [2] worked out at 1900 nM.
Still for that read-out and setting: to `NC1(c2ccc(-c3nc4nc(Oc5ccccc5)ccn4c3-c3ccccc3)cc2)CCC1` [Example 2-32] belongs 1800 nM.
With `COC(=O)c1ccc2nc(-c3ccc(C4(N)CCC4)cc3)c(-c3ccccc3)n2c1` [Example 2-36], the IC50 in test [3] was determined as 1020 nM; in test [2], 10000 nM.
On to `NC1(c2ccc(-c3nc4c(Br)cccn4c3-c3ccccc3)cc2)CCC1` [Example 2-39], for which the results for the IC50 in test [3] and in test [2] were 32 nM and 1600 nM, respectively.
The corresponding values for `NC1(c2ccc(-c3nc4cc(Br)ccn4c3-c3ccccc3)cc2)CCC1` [Example 2-40] are 237 nM and 1900 nM.
The corresponding values for `NC1(c2ccc(-c3nc4c(F)cccn4c3-c3ccccc3)cc2)CCC1` [Example 2-44] are 48 nM and 1500 nM.
The corresponding values for `NC1(c2ccc(-c3nc4c(Cl)cccn4c3-c3ccccc3)cc2)CCC1` [Example 2-45] are 28 nM and 1800 nM.
Turning to `NC1(c2ccc(-c3nc4ccc(F)cn4c3-c3ccccc3)cc2)CCC1` [Example 2-46], the IC50 in test [3] is 59 nM; in test [2], 1800 nM.
With `C=Cc1cccn2c(-c3ccccc3)c(-c3ccc(C4(N)CCC4)cc3)nc12` [Example 2-49], the IC50 in test [3] came out at 303 nM; in test [2], 8700 nM.
The matching figures for `NC1(c2ccc(-c3nc4cc(-c5ccccn5)ccn4c3-c3ccccc3)cc2)CCC1` [Example 2-111]: 140 nM and 1800 nM.
The corresponding values for `NC(=O)/C=C/c1ccn2c(-c3ccccc3)c(-c3ccc(C4(N)CCC4)cc3)nc2c1` [Example 2-124] are 101 nM and 2300 nM.
The matching figures for `NC1(c2ccc(-c3nc4ccc(-c5cn[nH]c5)cn4c3-c3ccccc3)cc2)CCC1` [Example 2-132]: 40 nM and 1700 nM.
On to `N[C@]1(c2ccc(-c3nc4nc(O)ccn4c3-c3ccccc3)cc2)C[C@H](O)C1` [Example 3-0, 2-[4-(cis-1-amino-3-hydroxy-cyclobutyl)-phenyl]-3-phenyl-imidazo[1,2-a]pyrimidin-7-ol], for which the IC50 in test [1] stood at 384 nM.
